What was measured:
[1] = system: windgrass; test: Test Example 5: herbicidal effect by foliage application, plastic box (Table 20, symbol L); type: in vivo, windgrass (Apera spica-venti); conditions: 320 g/ha, foliage application after 14-day growth, evaluated three weeks after application
How it was run: (§1)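 Sow seeds spot-wise in sterilized diluvial soil; cover with ~1.5 cm soil. Grow 14 days in greenhouse, 25° C. to 30° C. Spray foliage with emulsion diluted to predetermined amount. Rate effect after 3 weeks.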

[2] = system: barnyard grass; test: Test Example 4: herbicidal effect by soil treatment (Table 19, symbol H); type: in vivo, barnyard grass (Echinochloa crus-galli); conditions: amount of applied herbicide 320 g/ha
How it was run: (§2)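 Soil-surface application: an emulsion agent diluted with water to the predetermined dose is sprayed uniformly over seeds lying under roughly 1.5 cm of sterilized diluvial soil. Boxes stay in a greenhouse at 25° C. to 30° C. Three weeks later, each species is graded on previously defined criteria.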

[3] = system: velvetleaf; test: Test Example 5: herbicidal effect by foliage application, plastic box (Table 20, symbol M); type: in vivo, velvetleaf (Abutilon theophrasti); conditions: 320 g/ha, foliage application after 14-day growth, evaluated three weeks after application
How it was run: as §1

[4] = system: windgrass; test: Test Example 4: herbicidal effect by soil treatment (Table 19, symbol L); type: in vivo, windgrass (Apera spica-venti); conditions: amount of applied herbicide 320 g/ha
How it was run: as §2

[5] = system: wild oat; test: Test Example 5: herbicidal effect by foliage application, plastic box (Table 20, symbol I); type: in vivo, wild oat (Avena fatua); conditions: 320 g/ha, foliage application after 14-day growth, evaluated three weeks after application
How it was run: as §1

[6] = system: chickweed; test: Test Example 5: herbicidal effect by foliage application, plastic box (Table 20, symbol P); type: in vivo, common chickweed (Stellaria media); conditions: 320 g/ha, foliage application after 14-day growth, evaluated three weeks after application
How it was run: as §1

[7] = system: redroot pigweed; test: Test Example 5: herbicidal effect by foliage application, plastic box (Table 20, symbol N); type: in vivo, redroot pigweed (Amaranthus retroflexus); conditions: 320 g/ha, foliage application after 14-day growth, evaluated three weeks after application
How it was run: as §1

[8] = system: Italian ryegrass; test: Test Example 4: herbicidal effect by soil treatment (Table 19, symbol K); type: in vivo, Italian ryegrass (Lolium multiflorum); conditions: amount of applied herbicide 320 g/ha
Excerpt: (§3) [Test Example 4] Herbicidal Effect Test by Soil Treatment
(§4) Sterilized diluvial soil was placed in a plastic box having a length of 21 cm, a width of 13 cm, and a depth of 7 cm. The seeds of each of southern crabgrass, green foxtail, barnyard grass, wild oat, blackgrass, Italian ryegrass, windgrass, velvetleaf, redroot pigweed, lambsquarters, chickweed, false cleavers, persian speedwell, corn, soybean, rice, wheat, beet, and rapeseed were sowed in a spot-like manner and covered with the soil having a thickness of about 1.5 cm. Subsequently, the emulsion agent of the compound of the present invention prepared according to Formulation Example 2 was diluted with water so as to achieve a predetermined herbicide amount, and the diluted emulsion agent was uniformly applied to the surface of the soil with a small-sized spray. The plastic box was placed in a greenhouse at 25° C. to 30° C. for growth of the plants. Three weeks after the herbicide application, the effect of the herbicide on each plant was evaluated according to the criteria of Test Example 1.

[9] = system: rice flat sedge; test: Test Example 3: herbicidal effect by foliage application, Wagner pot (Table 18, symbol E); type: in vivo, rice flat sedge (Cyperus iria); conditions: 320 g/ha
How it was run: (§5)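 Plants were sown in alluvial soil held under 0.1–0.5 cm standing water and grown 14 days in a greenhouse at 25–30 °C. An emulsifiable formulation, water-diluted to the set dose, was then sprayed onto the foliage, and effects were scored three weeks later using previously defined criteria.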

[10] = system: velvetleaf; test: Test Example 4: herbicidal effect by soil treatment (Table 19, symbol M); type: in vivo, velvetleaf (Abutilon theophrasti); conditions: amount of applied herbicide 320 g/ha
How it was run: as §2

[11] = system: barnyard grass; test: Test Example 3: herbicidal effect by foliage application, Wagner pot (Table 18, symbol H); type: in vivo, barnyard grass (Echinochloa crus-galli); conditions: 320 g/ha
How it was run: as §5

[12] = system: blackgrass; test: Test Example 4: herbicidal effect by soil treatment (Table 19, symbol J); type: in vivo, blackgrass (Alopecurus myosuroides); conditions: amount of applied herbicide 320 g/ha
How it was run: as §2

[13] = system: lambsquarters; test: Test Example 5: herbicidal effect by foliage application, plastic box (Table 20, symbol O); type: in vivo, lambsquarters (Chenopodium album); conditions: 320 g/ha, foliage application after 14-day growth, evaluated three weeks after application
How it was run: as §1

[14] = system: lambsquarters; test: Test Example 4: herbicidal effect by soil treatment (Table 19, symbol O); type: in vivo, lambsquarters (Chenopodium album); conditions: amount of applied herbicide 320 g/ha
How it was run: as §2

[15] = system: Italian ryegrass; test: Test Example 5: herbicidal effect by foliage application, plastic box (Table 20, symbol K); type: in vivo, Italian ryegrass (Lolium multiflorum); conditions: 320 g/ha, foliage application after 14-day growth, evaluated three weeks after application
How it was run: as §1

[16] = system: redroot pigweed; test: Test Example 4: herbicidal effect by soil treatment (Table 19, symbol N); type: in vivo, redroot pigweed (Amaranthus retroflexus); conditions: amount of applied herbicide 320 g/ha
How it was run: as §2

[17] = system: barnyard grass; test: Test Example 5: herbicidal effect by foliage application, plastic box (Table 20, symbol H); type: in vivo, barnyard grass (Echinochloa crus-galli); conditions: 320 g/ha, foliage application after 14-day growth, evaluated three weeks after application
How it was run: as §1

[18] = system: Chinese sprangletop; test: Test Example 3: herbicidal effect by foliage application, Wagner pot (Table 18, symbol D); type: in vivo, chinese sprangletop (Leptochloa chinensis); conditions: 320 g/ha
How it was run: as §5

[19] = system: green foxtail; test: Test Example 5: herbicidal effect by foliage application, plastic box (Table 20, symbol G); type: in vivo, green foxtail (Setaria viridis); conditions: 320 g/ha, foliage application after 14-day growth, evaluated three weeks after application
How it was run: as §1

[20] = system: wild oat; test: Test Example 4: herbicidal effect by soil treatment (Table 19, symbol I); type: in vivo, wild oat (Avena fatua); conditions: amount of applied herbicide 320 g/ha
How it was run: as §2

[21] = system: southern crabgrass; test: Test Example 5: herbicidal effect by foliage application, plastic box (Table 20, symbol F); type: in vivo, southern crabgrass (Digitaria ciliaris); conditions: 320 g/ha, foliage application after 14-day growth, evaluated three weeks after application
How it was run: as §1

[22] = system: chickweed; test: Test Example 4: herbicidal effect by soil treatment (Table 19, symbol P); type: in vivo, common chickweed (Stellaria media); conditions: amount of applied herbicide 320 g/ha
Excerpt: as §3, §4

[23] = system: southern crabgrass; test: Test Example 4: herbicidal effect by soil treatment (Table 19, symbol F); type: in vivo, southern crabgrass (Digitaria ciliaris); conditions: amount of applied herbicide 320 g/ha
How it was run: as §2

[24] = system: persian speedwell; test: Test Example 5: herbicidal effect by foliage application, plastic box (Table 20, symbol R); type: in vivo, Persian speedwell (Veronica persica); conditions: 320 g/ha, foliage application after 14-day growth, evaluated three weeks after application
How it was run: as §1

[25] = system: green foxtail; test: Test Example 4: herbicidal effect by soil treatment (Table 19, symbol G); type: in vivo, green foxtail (Setaria viridis); conditions: amount of applied herbicide 320 g/ha
How it was run: as §2

[26] = system: blackgrass; test: Test Example 5: herbicidal effect by foliage application, plastic box (Table 20, symbol J); type: in vivo, blackgrass (Alopecurus myosuroides); conditions: 320 g/ha, foliage application after 14-day growth, evaluated three weeks after application
How it was run: as §1

Row | Compound | herbicidal effect on L: windgrass (evaluation grade 0-5) [1] | Herbicidal effect by soil treatment, H: barnyard grass [2] | herbicidal effect on M: velvetleaf (evaluation grade 0-5) [3] | Herbicidal effect by soil treatment, L: windgrass [4] | herbicidal effect on I: wild oat (evaluation grade 0-5) [5] | herbicidal effect on P: chickweed (evaluation grade 0-5) [6] | herbicidal effect on N: redroot pigweed (evaluation grade 0-5) [7] | Herbicidal effect by soil treatment, K: Italian ryegrass [8] | herbicidal effect on rice flat sedge (E) [9] | Herbicidal effect by soil treatment, M: velvetleaf [10] | herbicidal effect on barnyard grass (H) [11] | Herbicidal effect by soil treatment, J: blackgrass [12] | herbicidal effect on O: lambsquarters (evaluation grade 0-5) [13] | Herbicidal effect by soil treatment, O: lambsquarters [14] | herbicidal effect on K: Italian ryegrass (evaluation grade 0-5) [15] | Herbicidal effect by soil treatment, N: redroot pigweed [16] | herbicidal effect on H: barnyard grass (evaluation grade 0-5) [17] | herbicidal effect on Chinese sprangletop (D) [18] | herbicidal effect on G: green foxtail (evaluation grade 0-5) [19] | Herbicidal effect by soil treatment, I: wild oat [20] | also measured
1 | CCOc1ccccc1-c1sc2c(Cl)cccc2c1-c1c(O)c(C)nn(C)c1=O [4-025] | 5 (Herbicidal rate of 90% or more (almost completely withered)) | 3 (Herbicidal rate of 40% or more and less than 70%) | 4 (Herbicidal rate of 70% or more and less than 90%) | 0 (Herbicidal rate of 5% or less (almost no effect)) | 0 (Herbicidal rate of 5% or less (almost no effect)) | 4 (Herbicidal rate of 70% or more and less than 90%) | 4 (Herbicidal rate of 70% or more and less than 90%) | 0 (Herbicidal rate of 5% or less (almost no effect)) | 5 (Herbicidal rate of 90% or more (almost completely withered)) | 2 (Herbicidal rate of 20% or more and less than 40%) | 5 (Herbicidal rate of 90% or more (almost completely withered)) | 1 (Herbicidal rate of 5% or more and less than 20%) | 3 (Herbicidal rate of 40% or more and less than 70%) | 1 (Herbicidal rate of 5% or more and less than 20%) | 3 (Herbicidal rate of 40% or more and less than 70%) | 3 (Herbicidal rate of 40% or more and less than 70%) | 5 (Herbicidal rate of 90% or more (almost completely withered)) | 3 (Herbicidal rate of 40% or more and less than 70%) | 5 (Herbicidal rate of 90% or more (almost completely withered)) | 0 (Herbicidal rate of 5% or less (almost no effect)) | herbicidal effect on F: southern crabgrass (evaluation grade 0-5) [21]: 3 (Herbicidal rate of 40% or more and less than 70%); Herbicidal effect by soil treatment, P: chickweed [22]: 0 (Herbicidal rate of 5% or less (almost no effect)); Herbicidal effect by soil treatment, F: southern crabgrass [23]: 2 (Herbicidal rate of 20% or more and less than 40%); herbicidal effect on R: persian speedwell (evaluation grade 0-5) [24]: 5 (Herbicidal rate of 90% or more (almost completely withered)); Herbicidal effect by soil treatment, G: green foxtail [25]: 4 (Herbicidal rate of 70% or more and less than 90%); herbicidal effect on J: blackgrass (evaluation grade 0-5) [26]: 4 (Herbicidal rate of 70% or more and less than 90%)
2 | Cc1nn(C)c(=O)c(-c2c(-c3ccccc3F)sc3c(Cl)cccc23)c1O [4-058] | 4 (Herbicidal rate of 70% or more and less than 90%) | 0 (Herbicidal rate of 5% or less (almost no effect)) | 1 (Herbicidal rate of 5% or more and less than 20%) | 0 (Herbicidal rate of 5% or less (almost no effect)) | 0 (Herbicidal rate of 5% or less (almost no effect)) | 5 (Herbicidal rate of 90% or more (almost completely withered)) | 3 (Herbicidal rate of 40% or more and less than 70%) | 2 (Herbicidal rate of 20% or more and less than 40%) | 3 (Herbicidal rate of 40% or more and less than 70%) | 0 (Herbicidal rate of 5% or less (almost no effect)) | 4 (Herbicidal rate of 70% or more and less than 90%) | 0 (Herbicidal rate of 5% or less (almost no effect)) | 2 (Herbicidal rate of 20% or more and less than 40%) | 0 (Herbicidal rate of 5% or less (almost no effect)) | 3 (Herbicidal rate of 40% or more and less than 70%) | 0 (Herbicidal rate of 5% or less (almost no effect)) | 0 (Herbicidal rate of 5% or less (almost no effect)) | 3 (Herbicidal rate of 40% or more and less than 70%) | 0 (Herbicidal rate of 5% or less (almost no effect)) | 0 (Herbicidal rate of 5% or less (almost no effect)) | herbicidal effect on F: southern crabgrass (evaluation grade 0-5) [21]: 2 (Herbicidal rate of 20% or more and less than 40%); Herbicidal effect by soil treatment, P: chickweed [22]: 5 (Herbicidal rate of 90% or more (almost completely withered)); Herbicidal effect by soil treatment, F: southern crabgrass [23]: 0 (Herbicidal rate of 5% or less (almost no effect)); herbicidal effect on R: persian speedwell (evaluation grade 0-5) [24]: 5 (Herbicidal rate of 90% or more (almost completely withered)); Herbicidal effect by soil treatment, G: green foxtail [25]: 0 (Herbicidal rate of 5% or less (almost no effect)); herbicidal effect on J: blackgrass (evaluation grade 0-5) [26]: 0 (Herbicidal rate of 5% or less (almost no effect))
